Measured values: PMC12249711, “Comprehensive Evaluation of 1H-Isoindole-1,3(2H)-Dione Derivatives: Pharmacokinetic Studies and Analgesic Potential in Various Pain Models” (International Journal of Molecular Sciences, 2025)

What was measured:
[1] = system: mice; test: Formalin test; type: in vivo, Albino Swiss mice; conditions: vs vehicle; for Reduction of pain reaction (licking duration), neurogenic phase: phase I (0–5 min); for Reduction of pain response, inflammatory phase: phase II (15–30 min)
Method: The pain reaction was induced by intraplantar (i.pl.) injection of 20 μL of 2.5% formalin solution into the right hind paw of the mouse (n = 136). […] Time (in seconds) spent on licking or biting the injected hind paw in selected intervals, 0–5 min (neurogenic phase) and 15–30 min (inflammatory phase), was measured in each group and was an indicator of nociceptive behavior. The procedure was based on the method described by with some modifications by.

[2] = design: method as in PMID 35396875; conditions: initial in vivo screening; cited from earlier work

SMILES	Reduction of pain reaction (licking duration), neurogenic phase ([1]; 5 mg/kg i.p.)	Reduction of pain reaction (licking duration), neurogenic phase ([1]; 10 mg/kg i.p.)	Reduction of pain reaction (licking duration), neurogenic phase ([1]; 20 mg/kg i.p.)	Reduction of pain response, inflammatory phase ([1]; 5 mg/kg i.p.)	Reduction of pain response, inflammatory phase ([1]; 10 mg/kg i.p.)	Reduction of pain response, inflammatory phase ([1]; 20 mg/kg i.p.)	Activity in central (supraspinal) pain model, hot plate test [2]
O=C1c2ccccc2C(=O)N1CC(O)CN1CCN(c2ccccc2)CC1 (stereo not drawn) [Compound F1]	did not attenuate the nociceptive response	44.9%	62.7%	37%	66%	90%	–
COc1ccccc1N1CCN(CC(O)CN2C(=O)c3ccccc3C2=O)CC1 (stereo not drawn) [Compound F2]	did not attenuate the nociceptive response	44.6%	53%	51%	73%	87%	–
O=C1c2ccccc2C(=O)N1CC(O)CN1CCN(c2cccc(C(F)(F)F)c2)CC1 (stereo not drawn) [Compound F3]	did not attenuate the nociceptive response	did not attenuate the nociceptive response	41.6%	34.5%	57.5%	80.9%	–
O=C1c2ccccc2C(=O)N1CC(O)CN1CCN(C(c2ccccc2)c2ccccc2)CC1 (stereo not drawn) [Compound F4]	did not attenuate the nociceptive response	did not attenuate the nociceptive response	48.3%	–	29.5%	42%	inactive
